In patent US8846013B2, “Topical application of 1-hydroxyl-3,5-BIS(4′hydroxy styryl)benzene” (Johnson & Johnson Consumer Companies, Inc., priority 2012, dated 2014):

What was measured:
IL-8 cytokine release = experiment: Anti-inflammatory activity: IL-8 cytokine release from UV-exposed epidermal equivalents (EPI 200 HCF); format: cell-based, human; details: summary statement
Method: The topical anti-inflammatory activities of 1-hydroxyl 3,5-bis(4′hydroxyl styryl)benzene and its piperazine salt were evaluated as follows.
Epidermal equivalents (EPI 200 HCF), multilayer and differentiated epidermis consisting of normal human epidermal keratinocytes, were purchased from MatTek (Ashland, Mass.). Upon receipt, epidermal equivalents were incubated for 24 hours at 37° C. in maintenance medium without hydrocortisone. Equivalents were topically treated (2 mg/cm^2) with 1-hydroxyl 3,5-bis(4′hydroxyl styryl)benzene thereof in a 70:30 Ethanol-Propylene glycol vehicle two hours before exposure to solar ultraviolet light (1000W-Oriel solar simulator equipped with a 1-mm Schott WG 320 filter; UV dose applied: 70 kJ/m^2 as measured at 360 nm). The equivalents were incubated for 24 hours at 37° C. with maintenance medium then supernatants were analyzed for IL-8 cytokine release using commercially available kits (Millipore Corp., Billerica, Mass.).

Collagen 1A = experiment: Induction of Collagen1A gene expression in primary human dermal fibroblasts (quantitative PCR); format: cell-based; details: for Collagen 1A Normalized Fold-change in PCR (Mean): 48 hr, normalized to GAPDH, from untreated
Method: (§1) Primary human dermal fibroblasts (Lifeline Cell Technologies, Frederick, Md.) were grown until confluence in DMEM media (Invitrogen/Life Technologies, Carlsbad, 10 CA) with 10% FBS and 1% Penicillin-Streptomycin on 24 well tissue culture plates, followed by treatment with 1-hydroxyl 3,5-bis(4′hydroxyl styryl)benzene (0.1 ug/mL) with and without TNF-a for 48 hr. Post-treatment, cells were lysed using RLT buffer and total RNA was isolated using the RNeasy Mini Kit (Qiagen, Valencia, Calif.). Quantitative PCR was performed using the Gene Amp PCR System 9700 and 7500 Real Time PCR 15 System cycler (Applied Biosystems)/Life Technologies, Carlsbad, Calif.). Elastin (Qiagen) and Collagen1α1 primers (custom sequence-sense: 5′-TCC-CCA-GCT-GTC-TTA-TGG CT-3′ (SEQ ID NO: 1) and anti-sense: 5′-CAG-GCA-CGG-AAA-TTC-CTC-C-3′ (SEQ ID NO: 2)) were used. The housekeeping gene GAPDH was used for normalization (custom primer sequence: F 5′-ATC-TCT-GCC-CCC-TCT-GCT-G-3′ (SEQ ID NO: 3) and R 5′-ATG-GTT-CAC-ACC-CAT-GAC-GA-3′ (SEQ ID NO: 4); Invitrogen/Life Technologies, Carlsbad, Calif.). Fold-changes in PCR (normalized to 5 GAPDH) were calculated from untreated.

Elastin = experiment: Induction of Elastin gene expression in primary human dermal fibroblasts (quantitative PCR); format: cell-based; details: summary statement
Method: as §1

MMP-9 = experiment: Inhibition of TNF-α-induced MMP-9 levels in epidermal equivalents (EPI 200 HCF); format: cell-based, human; details: summary statement
Method: The ability of 1-hydroxyl 3,5-bis(4′hydroxyl styryl)benzene to inhibit TNF-a induced MMP-9 levels was tested at different concentrations as follows. The formation of TNF-α induced MMP-9 is involved in the undesirable breakdown of extracellular matrix in human skin.
Epidermal equivalents (EPI 200 HCF) were purchased from MatTek (Ashland, Mass.). Upon receipt, the epidermal equivalents were incubated for 24 hours at 37° C. in maintenance medium without hydrocortisone. The equivalents were topically treated (2 mg/cm^2) with 1-hydroxyl 3,5-bis(4′hydroxyl styryl)benzene extracts in a 70% ethanol/30% propylene glycol vehicle 2 hours before treatment with TNF-α (100 ng/mL). the equivalents were incubated for 48 hours at 37° C. with maintenance medium then supernatants were analyzed for MMP-9 using commercially available kits (R&D Systems, Minneapolis, Minn.).

Oc1ccc(/C=C/c2cc(O)cc(/C=C/c3ccc(O)cc3)c2)cc1 [1-hydroxyl 3,5-bis(4′hydroxylstyryl)benzene]
reduction in UV-induced inflammation in human skin cells (in words) (IL-8 cytokine release): strong reduction
Collagen 1A Normalized Fold-change in PCR (Mean) (Collagen 1A; 0.1 ug/mL with TNF-α (10 ng/mL)): 1.36
Collagen 1A Normalized Fold-change in PCR (Mean) (Collagen 1A; 0.1 ug/mL, without TNF-a): 2.96
expression of genes associated with collagen production (in words) (Collagen 1A; summary statement): increased
expression of genes associated with elastin production (in words) (Elastin): increased
formation of TNF-α induced MMP-9 (in words) (MMP-9): inhibited

Oc1ccc(C=Cc2cc(O)cc(C=Cc3ccc(O)cc3)c2)cc1 [1-hydroxyl 3,5-bis(4′hydroxylstyryl)benzene]
reduction in UV-induced inflammation in human skin cells (in words) (IL-8 cytokine release): strong reduction
